Results reported in patent US20250034161A1, “SPIROCYCLIC COMPOUND AS KRAS-G12C INHIBITOR” (Shanghai Euregen Biopharma Co., Ltd., priority 2020, published 2025).

Key:
CYP 2D6 = CYP 2D6 (Homo sapiens, UniProt P10635); test: CYP inhibition test, human liver microsomes, CYP2D6
Experimental: (§1) • 1. Test purpose: to evaluate the inhibitory ability of some of the example compounds of the present invention against CYP1A2, 2B6, 2C8, 2C9, 2C19, 2D6 and 3A4 via human liver microsomes. • 2. […] Test method:
• 1. K/Mg buffer: the components were 0.1 mol/L potassium phosphate and 5 mmol/L magnesium chloride with pH 7.4±0.1, preheated. • 2. Solution of the test compound: the test compound was dissolved in dimethyl sulfoxide to prepare a stock solution of 10 mmol/L. 8 μL of 10 mmol/L stock solution was transferred to a 96-well plate containing 12 μL of acetonitrile as the highest concentration point, at 3-fold dilution, for 8 concentrations. • 3. […] Human liver microsomal stock solution: human liver microsomes were dissolved in 0.1 mol/L K/Mg buffer to obtain 20 mg/mL stock solution. • 5. Human liver microsomal working solution: 10 μL of 20 mg/mL human liver microsomal stock solution was taken and added into 990 μL of 0.1 mol/L K/Mg buffer to prepare 0.2 mg/mL human liver microsomal solution. • 6.
600 μL of 0.2 mg/mL human liver microsomal solution and 3 μL of stepwise diluted test compound solution were added to the 96-well plate. 30 μL of the above solution was added on the 96-well plate followed by the addition of 15 μL of the corresponding substrate solution. […]

CYP 2C8 = target: T1, CYP 2C8 (Homo sapiens, UniProt P10632); test: CYP inhibition test, human liver microsomes, CYP2C8
T1 sequence (P10632 1-490): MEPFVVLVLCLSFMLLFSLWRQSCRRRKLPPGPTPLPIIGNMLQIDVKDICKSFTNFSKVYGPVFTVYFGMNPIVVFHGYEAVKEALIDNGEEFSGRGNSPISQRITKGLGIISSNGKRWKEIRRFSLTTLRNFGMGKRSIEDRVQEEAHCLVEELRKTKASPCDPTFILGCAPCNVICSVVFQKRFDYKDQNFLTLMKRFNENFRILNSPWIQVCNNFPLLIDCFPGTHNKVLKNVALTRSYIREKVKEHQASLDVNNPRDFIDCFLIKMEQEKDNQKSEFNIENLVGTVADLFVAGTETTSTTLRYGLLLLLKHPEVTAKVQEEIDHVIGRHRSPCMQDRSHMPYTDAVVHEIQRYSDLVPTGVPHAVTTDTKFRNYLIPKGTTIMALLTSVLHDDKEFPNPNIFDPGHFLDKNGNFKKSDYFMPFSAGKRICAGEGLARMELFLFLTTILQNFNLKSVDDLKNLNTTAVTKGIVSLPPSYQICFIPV
Experimental: as §1
• 1. K/Mg buffer: the components were 0.1 mol/L potassium phosphate and 5 mmol/L magnesium chloride with pH 7.4±0.1, preheated. • 2. Solution of the test compound: the test compound was dissolved in dimethyl sulfoxide to prepare a stock solution of 10 mmol/L. 8 μL of 10 mmol/L stock solution was transferred to a 96-well plate containing 12 μL of acetonitrile as the highest concentration point, at 3-fold dilution, for 8 concentrations. • 3. NADPH solution: 66.7 mg of NADPH was dissolved in 10 mL of 0.1 mol/L K/Mg buffer to obtain 8 mmol/L NADPH solution with pH 7.4. • 4. Human liver microsomal stock solution: human liver microsomes were dissolved in 0.1 mol/L K/Mg buffer to obtain 20 mg/mL stock solution. • 5. Human liver microsomal working solution: 10 μL of 20 mg/mL human liver microsomal stock solution was taken and added into 990 μL of 0.1 mol/L K/Mg buffer to prepare 0.2 mg/mL human liver microsomal solution. • 6. […]

CYP 2D6, sequence (P10635 whole entry): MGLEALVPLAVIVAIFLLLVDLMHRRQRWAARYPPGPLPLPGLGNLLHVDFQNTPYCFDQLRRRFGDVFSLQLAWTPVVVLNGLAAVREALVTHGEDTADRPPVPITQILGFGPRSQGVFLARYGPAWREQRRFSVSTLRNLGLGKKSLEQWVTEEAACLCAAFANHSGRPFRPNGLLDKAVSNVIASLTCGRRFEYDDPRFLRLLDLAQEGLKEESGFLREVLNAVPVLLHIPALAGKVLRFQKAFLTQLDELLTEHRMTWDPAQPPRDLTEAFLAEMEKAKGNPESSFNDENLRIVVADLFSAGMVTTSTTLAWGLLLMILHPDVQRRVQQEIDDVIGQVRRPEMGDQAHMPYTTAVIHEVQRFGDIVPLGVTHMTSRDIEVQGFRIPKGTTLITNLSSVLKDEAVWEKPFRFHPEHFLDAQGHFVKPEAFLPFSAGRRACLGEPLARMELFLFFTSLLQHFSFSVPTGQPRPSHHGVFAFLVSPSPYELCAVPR

Row | Structure (SMILES) | IC50 (CYP 2D6) [µM] | IC50 (CYP 2C8) [µM]
1 | C=CC(=O)N1CCN(c2nc(=O)n(-c3c(C)ccnc3C(C)C)c3nc(-c4c(O)cccc4F)c(F)cc23)[C@@H](C)C1 [AMG510] | > 10 | > 10
2 | C=C(F)C(=O)N1CCN(c2nc(OC[C@@H]3CCCN3C)nc3c2CCN(c2cccc4cccc(Cl)c24)C3)C[C@@H]1CC#N [MRTX849] | 9.72 | > 10
